Row | flash point | Compound
1 | 13.00 °C | ClCCCl [1,2-dichloroethane]
2 | 101.00 °C | CC(O)CCC(C)O (configuration not stated) [hexane-2,5-diol]
3 | 177.00 °C | CCCCCCCC(=O)OCC(COC(=O)CCCCCCC)OC(=O)CCCCCCC [2,3-di(octanoyloxy)propyl octanoate]
4 | 86.00 °C | C[Si](C)(C)O[Si](C)(O[Si](C)(C)C)O[Si](C)(C)C [trimethyl-[methyl-bis(trimethylsilyloxy)silyl]oxysilane]
5 | 163.00 °C | CCCCCCCCCCCCc1ccccc1O [2-dodecylphenol]
6 | 33.00 °C | C=C1C2CCC(C2)C1(C)C (configuration not stated) [2,2-dimethyl-3-methylidenebicyclo[2.2.1]heptane]
7 | 218.00 °C | O=C=Nc1ccc(Cc2ccc(N=C=O)cc2)cc1 [1-isocyanato-4-[(4-isocyanatophenyl)methyl]benzene]
8 | 193.00 °C | Nc1ccc(Nc2ccccc2)cc1 [4-N-phenylbenzene-1,4-diamine]
9 | 135.00 °C | CCCCCCCCCCCCCCCC [hexadecane]
10 | 152.00 °C | CCCCC(CC)COP(=O)(OCC(CC)CCCC)OCC(CC)CCCC (configuration not stated) [tris(2-ethylhexyl) phosphate]
11 | 74.00 °C | OC(CCl)CCl [1,3-dichloropropan-2-ol]
12 | 82.00 °C | C=CC(=O)OCCOC [2-methoxyethyl prop-2-enoate]
13 | 121.00 °C | C1CN(SSN2CCOCC2)CCO1 [4-(morpholin-4-yldisulfanyl)morpholine]
14 | 192.00 °C | Cc1ccc(S(=O)(=O)[N-]Cl)cc1.[Na+] [sodium;chloro-(4-methylphenyl)sulfonylazanide]
15 | 74.00 °C | C=C(C)C(=O)OCCN(C)C [2-(dimethylamino)ethyl 2-methylprop-2-enoate]
16 | 40.00 °C | CCOCC(C)O (configuration not stated) [1-ethoxypropan-2-ol]
17 | 64.00 °C | CCOC(=O)CC(C)O (configuration not stated) [ethyl 3-hydroxybutanoate]
18 | 4.00 °C | C1=CCC=C1.C1=CCC=C1.[Ni] [cyclopenta-1,3-diene;nickel]
19 | 36.00 °C | CNCCCN [N'-methylpropane-1,3-diamine]
20 | 33.00 °C | CCC(CC)OC(C)=O [pentan-3-yl acetate]
21 | -23.00 °C | C[CH2][Al]([Cl])[CH2]C [chloro(diethyl)alumane]
22 | 79.00 °C | CN(C)CCOCCN(C)C [2-[2-(dimethylamino)ethoxy]-N,N-dimethylethanamine]
23 | 135.00 °C | c1ccc(COCc2ccccc2)cc1 [phenylmethoxymethylbenzene]
24 | -1.00 °C | c1ccsc1 [thiophene]
25 | 68.00 °C | OC1CCCCC1 [cyclohexanol]
26 | 2.00 °C | CCCCCCCCCCCCCCCCCC(=O)[O-].[Cl-].[Cl-].[Cl-].[Cl-].[Cr+3].[Cr+3].[OH-] [chromium(3+);octadecanoate;tetrachloride;hydroxide]
27 | 54.00 °C | CCOCCOCCOCC [1-ethoxy-2-(2-ethoxyethoxy)ethane]

Row | flash point | Compound
28 | 85.00 °C | CC(C)OC(C)C(Cl)Cl (configuration not stated) [1,1-dichloro-2-propan-2-yloxypropane]
29 | 88.00 °C | CC(C)Nc1ccccc1 [N-propan-2-ylaniline]
30 | 41.00 °C | CC(C)CC(C)O (configuration not stated) [4-methylpentan-2-ol]
31 | 127.00 °C | C=CC(=O)OCCCCCCCCCC [decyl prop-2-enoate]
32 | 31.00 °C | O=CC1CO1 (configuration not stated) [oxirane-2-carbaldehyde]
33 | -21.00 °C | CCOC(C)OCC [1,1-diethoxyethane]
34 | 46.00 °C | CCCCCCCCCC [decane]
35 | 100.00 °C | CCCCCCCCCCCCCCCCCCCC [icosane]
36 | -7.00 °C | CCCC=O [butanal]
37 | -38.00 °C | CSC [methylsulfanylmethane]
38 | 12.00 °C | FC(F)(F)c1ccccc1 [trifluoromethylbenzene]
39 | 210.00 °C | CC(C)CCCCCOC(=O)CCCCC(=O)OCCCCCC(C)C [bis(6-methylheptyl) hexanedioate]
40 | 127.00 °C | O=C1CCCCCO1 [oxepan-2-one]
41 | 181.00 °C | CCCCOC(=O)c1ccc(O)cc1 [butyl 4-hydroxybenzoate]
42 | 60.00 °C | Fc1ccc(Br)cc1 [1-bromo-4-fluorobenzene]
43 | 192.00 °C | O=C=Nc1ccc2ccccc2c1N=C=O [1,2-diisocyanatonaphthalene]
44 | 18.00 °C | CCCCNCC [N-ethylbutan-1-amine]
45 | 79.00 °C | Oc1ccccc1 [phenol]
46 | 155.00 °C | O=C=Nc1cccc2c(N=C=O)cccc12 [1,5-diisocyanatonaphthalene]
47 | 135.00 °C | O=Cc1c(Cl)cccc1Cl [2,6-dichlorobenzaldehyde]
48 | 121.00 °C | C=C(C)C(=O)OCCCCCCCC(C)C [8-methylnonyl 2-methylprop-2-enoate]
49 | 54.00 °C | CCOCCCO [3-ethoxypropan-1-ol]
50 | 135.00 °C | CCOCCOCCOCCO [2-[2-(2-ethoxyethoxy)ethoxy]ethanol]
51 | 138.00 °C | Nc1cccc(N)c1 [benzene-1,3-diamine]
52 | 171.00 °C | CC(=O)CC(=O)Nc1ccc(C)cc1C [N-(2,4-dimethylphenyl)-3-oxobutanamide]
53 | 98.00 °C | CCOCC(=O)O [2-ethoxyacetic acid]

Row | Compound | flash point
54 | CCCCOCN(C(=O)CCl)c1c(CC)cccc1CC [N-(butoxymethyl)-2-chloro-N-(2,6-diethylphenyl)acetamide] | 114.00 °C
55 | O=[N+]([O-])c1ccccc1 [nitrobenzene] | 88.00 °C
56 | CC(=O)O [acetic acid] | 40.00 °C
57 | CC(C)N(C(=O)SCC(Cl)=CCl)C(C)C | 96.00 °C
58 | c1ccncc1 [pyridine] | 20.00 °C
59 | CCN(CC)CCO [2-(diethylamino)ethanol] | 60.00 °C
60 | C=CCOC(C)=O [prop-2-enyl acetate] | 22.00 °C
61 | Cc1cccc(C)c1N.Cl [2,6-dimethylaniline;hydrochloride] | 91.00 °C
62 | CCCCN(CC)C(=O)SCCC [S-propyl N-butyl-N-ethylcarbamothioate] | 51.00 °C
63 | C1O[C@H]1[C@H]1CO1 [(2R)-2-[(2R)-oxiran-2-yl]oxirane] | 46.00 °C
64 | C=CCOC(=O)c1ccccc1C(=O)OCC=C [bis(prop-2-enyl) benzene-1,2-dicarboxylate] | 110.00 °C
65 | CN=C=S [methylimino(sulfanylidene)methane] | 35.00 °C
66 | CCOS(=O)(=O)c1ccc(C)cc1 [ethyl 4-methylbenzenesulfonate] | 158.00 °C
67 | N=C(N)c1ccc(OCCCCCOc2ccc(C(=N)N)cc2)cc1 [4-[5-(4-carbamimidoylphenoxy)pentoxy]benzenecarboximidamide] | 103.00 °C
68 | Cc1cc(O)ccc1Cl [4-chloro-3-methylphenol] | 110.00 °C
69 | C1CC2OC2CC1C1CO1 (configuration not stated) [3-(oxiran-2-yl)-7-oxabicyclo[4.1.0]heptane] | 110.00 °C
70 | CC(C)(C)c1ccccc1OP(=O)(Oc1ccccc1)Oc1ccccc1 [(2-tert-butylphenyl) diphenyl phosphate] | 224.00 °C
71 | OCCN1CC1 [2-(aziridin-1-yl)ethanol] | 67.00 °C
72 | CN(C)N [1,1-dimethylhydrazine] | -15.00 °C
73 | O=C1c2ccccc2C(=O)c2ccccc21 [anthracene-9,10-dione] | 185.00 °C
74 | C=C(C)C(=O)OCC(CC)CCCC (configuration not stated) [2-ethylhexyl 2-methylprop-2-enoate] | 92.00 °C
75 | CCCCNC1CCCCC1 [N-butylcyclohexanamine] | 93.00 °C

Row | Compound | flash point
76 | CCCC(=O)OCC [ethyl butanoate] | 24.00 °C
77 | CC(Cl)CCl.ClC=CCCl (configuration not stated) [1,2-dichloropropane;(E)-1,3-dichloroprop-1-ene] | 17.00 °C
78 | CNc1ccccc1 [N-methylaniline] | 79.00 °C
79 | CCCCCCCCc1ccc(O)cc1 [4-octylphenol] | 113.00 °C
80 | CCC#N [propanenitrile] | 2.00 °C
81 | CCOP(=O)(OCC)SCCSCC.CCOP(=S)(OCC)OCCSCC | 45.00 °C
82 | CCCCOCCOCCCC [1-(2-butoxyethoxy)butane] | 85.00 °C
83 | CC(C)(C)OCC1CO1 (configuration not stated) [2-[(2-methylpropan-2-yl)oxymethyl]oxirane] | 43.00 °C
84 | C=CCN(CC=C)C(=O)CCl [2-chloro-N,N-bis(prop-2-enyl)acetamide] | 186.00 °C
85 | CCC(=O)Cl [propanoyl chloride] | 12.00 °C
86 | Clc1ccccc1Cl [1,2-dichlorobenzene] | 66.00 °C
87 | CN(C)N=O [N,N-dimethylnitrous amide] | 61.00 °C
88 | O=C(O)CBr [2-bromoacetic acid] | 113.00 °C
89 | CCOC(=O)c1ccccc1C(=O)OCC [diethyl benzene-1,2-dicarboxylate] | 140.00 °C
90 | N#CCC#N [propanedinitrile] | 130.00 °C
91 | C=CCN=C=S [3-isothiocyanatoprop-1-ene] | 46.00 °C
92 | C=CCBr [3-bromoprop-1-ene] | -2.00 °C
93 | O=[N+]([O-])N(Cl)c1ccccc1 [N-chloro-N-phenylnitramide] | 205.00 °C
94 | Nc1ccc(Cc2ccc(N)c(Cl)c2)cc1Cl [4-[(4-amino-3-chlorophenyl)methyl]-2-chloroaniline] | 113.00 °C
95 | Cc1ccc(N)cc1Cl [3-chloro-4-methylaniline] | 100.00 °C
96 | CC(O)CCO (configuration not stated) [butane-1,3-diol] | 121.00 °C
97 | CC1COC(=O)O1 (configuration not stated) [4-methyl-1,3-dioxolan-2-one] | 116.00 °C
